From PMC8874984, “Improved Cell-Potent and Selective Peptidomimetic Inhibitors of Protein N-Terminal Methyltransferase 1” (Molecules, 2022)
Like-named read-outs stand apart in the source and are kept apart here.

Key:
in vitro [1] = conditions: PAMPA
NTMT1 [2] = target: T1, NTMT1 (Homo sapiens, UniProt Q9BV86); assay: SAHH-coupled fluorescence assay of NTMT1 inhibition; format: biochemical; conditions: for IC50/IC50 (DC541): ratio of NTMT1 IC50 to that of DC541; for Expt. ΔGbind ± σ: estimated from the IC50 values in Table 1
T1 construct: made in house
T1 sequence (Q9BV86 1-223): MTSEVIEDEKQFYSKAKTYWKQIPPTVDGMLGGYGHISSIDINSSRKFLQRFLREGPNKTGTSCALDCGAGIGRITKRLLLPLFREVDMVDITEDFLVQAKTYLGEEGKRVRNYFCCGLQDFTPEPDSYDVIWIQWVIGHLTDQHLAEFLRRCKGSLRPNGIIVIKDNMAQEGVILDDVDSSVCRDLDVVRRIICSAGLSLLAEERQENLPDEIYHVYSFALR

HCT116 cells = assay: Cytotoxicity by alamarBlue assay in HCT116 cells
[3] = Cytotoxicity by alamarBlue assay in HCT116 cells; conditions: human, GI50, HCT116 cells
[4] = system: cellular α-N-terminal methylation level in HCT116 cells; assay: Cellular N-terminal methylation level, Western blot with anti-me3-SPK antibody; format: cell-based; conditions: Homo sapiens, HCT-116, cellular N-terminal methylation inhibition, n = 2
Protocol: Next, we investigated the effects of all peptidomimetic inhibitors with GI50 > 100 µM and IC50 < 1 µM on the cellular α-N-terminal methylation level in HCT116 cells (Table 2). Then, we examined the top three cell-potent peptidomimetic inhibitors 1d–f on the dose-response of inhibition of cellular N-terminal methylation levels. […] As the biochemical IC50 value of GD562 was about three-fold higher than DC541, we proposed that the improved cellular inhibition of GD562 may be attributed to its increased permeability with higher cLogP than DC541.
Figure 5 Inhibition of cellular N-terminal methylation by peptidomimetic inhibitors in HCT116 cells. Representative Western blot results of the effects of GD562 (A), GD564 (B), and GD573 (C) on the cellular methylation level. Image quantification was performed using ImageJ software (NIH). […] All experiments were performed in duplicate (n = 2). […]
Cellular N-methylation level.
The gel was transferred to a
system. Image quantification was done using ImageJ software (NIH). All bands were compared
OrganicsTM, AC418900050) dissolved in sterile 1 x PBS. […]

in vitro [5] = conditions: human
[6] = Parallel Artificial Membrane Permeability Assay (PAMPA)
me3-RCC1 [7] = system: me3-RCC1; parameters: method as in PMID 33738076; conditions: cited from earlier work
me3-SET [8] = system: me3-SET; parameters: method as in PMID 33738076; conditions: even at 300 µM in HCT116 cells; cited from earlier work
[9] = system: NTMT1 knockout HCT116 cells; assay: Cytotoxicity by alamarBlue assay in NTMT1 knockout HCT116 cells; format: cell-based, human; conditions: wild-type and NTMT1 knockout HCT116 cells
NNMT = target: T2, NNMT (Homo sapiens, UniProt P40261); assay: In-house selectivity study, fluorescence assay: NNMT; format: biochemical; conditions: read-out: inhibition of enzyme activity
T2 construct: made in house
T2 sequence (P40261 1-264): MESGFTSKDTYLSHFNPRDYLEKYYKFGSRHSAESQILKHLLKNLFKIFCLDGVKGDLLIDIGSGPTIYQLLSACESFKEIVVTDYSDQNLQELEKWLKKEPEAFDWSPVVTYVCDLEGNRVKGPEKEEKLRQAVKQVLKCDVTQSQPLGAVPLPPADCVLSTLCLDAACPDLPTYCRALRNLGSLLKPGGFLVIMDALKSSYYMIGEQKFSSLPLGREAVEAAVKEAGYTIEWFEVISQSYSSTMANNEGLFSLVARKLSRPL

me3-RCC1 [10] = assay: Cellular me3-RCC1 level in HCT116 cells; format: cell-based, human
SAHH = SAHH (Homo sapiens, UniProt P23526); assay: In-house selectivity study, fluorescence assay: coupling enzyme SAHH; format: biochemical; conditions: n = 2
Protocol: Figure 6 In-house selectivity studies of GD562. The compound was tested at 100, 30, and 10 µM (n = 2). Both SAM and substrate are at their Km values.

PRMT1 = target: T3, PRMT1 (Homo sapiens, UniProt Q99873); assay: In-house selectivity study, fluorescence assay: PRMT1; format: biochemical; conditions: read-out: inhibition of enzyme activity
T3 construct: made in house

me3-SET [11] = assay: Cellular me3-SET level in HCT116 cells; format: cell-based, human
SETD7 = target: T4, SETD7 (Homo sapiens, UniProt Q8WTS6); assay: In-house selectivity study, fluorescence assay: SETD7; format: biochemical; conditions: read-out: inhibition of enzyme activity
T4 construct: made in house
T4 sequence (Q8WTS6 1-366): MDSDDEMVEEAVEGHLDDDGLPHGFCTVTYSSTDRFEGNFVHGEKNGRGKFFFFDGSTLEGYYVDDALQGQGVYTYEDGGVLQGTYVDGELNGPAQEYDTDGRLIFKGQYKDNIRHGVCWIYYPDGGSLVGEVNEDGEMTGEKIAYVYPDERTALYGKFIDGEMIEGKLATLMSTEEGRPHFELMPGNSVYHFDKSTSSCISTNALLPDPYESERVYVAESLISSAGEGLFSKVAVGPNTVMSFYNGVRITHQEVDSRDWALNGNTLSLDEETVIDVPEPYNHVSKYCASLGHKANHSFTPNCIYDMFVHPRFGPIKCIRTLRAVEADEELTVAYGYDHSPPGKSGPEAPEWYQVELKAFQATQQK

TbPRMT7 = TbPRMT7 (Trypanosoma brucei brucei, UniProt Q582G4); assay: biochemical; conditions: read-out: inhibition of enzyme activity
G9a = target: T5, G9a (Homo sapiens, UniProt Q96KQ7); assay: In-house selectivity study, fluorescence assay: G9a; format: biochemical; conditions: read-out: inhibition of enzyme activity
T5 sequence (Q96KQ7 1-1210): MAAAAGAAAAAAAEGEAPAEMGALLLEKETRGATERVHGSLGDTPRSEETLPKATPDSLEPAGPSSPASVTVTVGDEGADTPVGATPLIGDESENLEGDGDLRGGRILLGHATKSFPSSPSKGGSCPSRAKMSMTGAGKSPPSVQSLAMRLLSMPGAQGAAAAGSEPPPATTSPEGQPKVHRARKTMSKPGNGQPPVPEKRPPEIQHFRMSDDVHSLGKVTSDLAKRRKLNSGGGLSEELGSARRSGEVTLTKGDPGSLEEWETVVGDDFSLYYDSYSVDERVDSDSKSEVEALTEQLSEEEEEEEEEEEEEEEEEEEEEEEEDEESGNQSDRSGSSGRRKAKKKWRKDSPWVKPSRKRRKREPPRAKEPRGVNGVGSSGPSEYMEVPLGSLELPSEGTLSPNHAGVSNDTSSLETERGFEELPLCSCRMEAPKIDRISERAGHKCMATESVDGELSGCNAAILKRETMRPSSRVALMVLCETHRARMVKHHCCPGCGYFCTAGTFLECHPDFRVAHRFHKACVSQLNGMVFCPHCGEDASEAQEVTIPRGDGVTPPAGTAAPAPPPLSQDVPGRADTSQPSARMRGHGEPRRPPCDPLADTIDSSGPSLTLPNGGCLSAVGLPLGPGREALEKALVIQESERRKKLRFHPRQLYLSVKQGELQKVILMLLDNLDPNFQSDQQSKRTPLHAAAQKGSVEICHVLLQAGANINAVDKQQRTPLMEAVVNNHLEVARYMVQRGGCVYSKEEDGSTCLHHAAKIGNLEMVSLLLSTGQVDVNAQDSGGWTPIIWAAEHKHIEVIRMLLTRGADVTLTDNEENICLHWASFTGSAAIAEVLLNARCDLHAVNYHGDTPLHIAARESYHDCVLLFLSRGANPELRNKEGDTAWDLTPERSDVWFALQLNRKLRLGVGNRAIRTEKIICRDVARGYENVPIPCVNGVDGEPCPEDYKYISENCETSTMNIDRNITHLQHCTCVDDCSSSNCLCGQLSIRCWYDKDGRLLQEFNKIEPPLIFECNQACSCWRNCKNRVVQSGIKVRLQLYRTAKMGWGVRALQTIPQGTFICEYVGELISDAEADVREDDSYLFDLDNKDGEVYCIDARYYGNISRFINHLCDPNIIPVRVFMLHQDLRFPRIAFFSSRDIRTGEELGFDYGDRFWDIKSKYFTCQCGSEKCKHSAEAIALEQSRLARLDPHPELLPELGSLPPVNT

NTMT1 [12] = target: T1, NTMT1; conditions: cited from earlier work
[13] = SAHH-coupled fluorescence assay, n = 2, mean ± SD, read-out: IC50

TbPRMT7, sequence (Q582G4 whole entry): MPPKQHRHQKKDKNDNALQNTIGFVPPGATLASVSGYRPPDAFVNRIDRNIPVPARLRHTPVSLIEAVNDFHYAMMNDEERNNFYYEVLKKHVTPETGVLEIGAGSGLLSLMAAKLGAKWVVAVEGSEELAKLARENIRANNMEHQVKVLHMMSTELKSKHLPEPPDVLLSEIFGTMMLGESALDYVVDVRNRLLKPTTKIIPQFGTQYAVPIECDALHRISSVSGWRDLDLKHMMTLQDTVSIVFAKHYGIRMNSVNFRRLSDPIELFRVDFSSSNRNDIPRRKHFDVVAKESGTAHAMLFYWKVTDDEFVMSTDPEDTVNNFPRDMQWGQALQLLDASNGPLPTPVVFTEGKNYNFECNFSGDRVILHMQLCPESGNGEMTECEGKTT
T3 sequence (Q99873 whole entry, species assumed): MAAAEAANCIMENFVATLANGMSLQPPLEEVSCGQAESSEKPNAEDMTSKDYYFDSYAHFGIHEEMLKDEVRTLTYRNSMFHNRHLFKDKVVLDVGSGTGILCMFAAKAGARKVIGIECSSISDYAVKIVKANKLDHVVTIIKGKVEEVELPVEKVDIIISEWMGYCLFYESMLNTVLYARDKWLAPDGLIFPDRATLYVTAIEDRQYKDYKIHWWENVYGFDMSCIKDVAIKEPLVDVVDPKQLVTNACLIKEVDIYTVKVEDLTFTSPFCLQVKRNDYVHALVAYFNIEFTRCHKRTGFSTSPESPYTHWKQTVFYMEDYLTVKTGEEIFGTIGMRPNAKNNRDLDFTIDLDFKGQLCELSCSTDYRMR
SAHH, sequence (P23526 whole entry, species assumed): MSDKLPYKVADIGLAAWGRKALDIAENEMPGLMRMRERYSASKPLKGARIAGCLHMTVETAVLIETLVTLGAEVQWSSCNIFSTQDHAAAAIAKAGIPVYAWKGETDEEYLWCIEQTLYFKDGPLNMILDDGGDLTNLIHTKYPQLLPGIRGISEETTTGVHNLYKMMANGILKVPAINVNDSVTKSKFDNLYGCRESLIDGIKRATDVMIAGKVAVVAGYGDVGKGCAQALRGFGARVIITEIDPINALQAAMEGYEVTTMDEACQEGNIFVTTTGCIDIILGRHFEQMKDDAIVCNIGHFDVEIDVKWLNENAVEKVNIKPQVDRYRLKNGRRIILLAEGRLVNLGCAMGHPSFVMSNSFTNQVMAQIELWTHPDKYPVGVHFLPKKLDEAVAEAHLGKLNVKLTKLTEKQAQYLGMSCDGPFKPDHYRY

Papp (in vitro [1]) [×10⁻⁶ cm/s] | IC50/IC50 (DC541) (NTMT1 [2]) | IC50 (NTMT1 [2]; [13]) [µM] | Expt. ΔGbind ± σ (NTMT1 [2]) [kcal/mol] | IC50 [4] [µM] | SMILES | GI50 [3] [µM] | other results
0.9 ± 0.3 | 7.4 | – | – | – | NCCCCC(NC(=O)C1CCCN1C(=O)Cc1cccc2ccccc12)C(=O)NCCc1ccc(-c2ccccc2)cc1 (stereo not shown) [Compound 1j] | – | –
1.3 ± 0.4 | 2.0 | – | – | – | NCCCCC(NC(=O)C1CCCN1C(=O)Cc1cccc2ccccc12)C(=O)NCCc1cccc(-c2ccccc2)c1 (stereo not shown) [Compound 1k] | < 70 | GI50 (HCT116 cells): 65 ± 7 µM
– | 0.53 | 0.18 ± 0.007 | -9.20 ± 0.03 | – | NCCCCC(NC(=O)C1CCCN1C(=O)Cc1cccc2ccccc12)C(=O)Nc1ccc(Br)cc1 (stereo not shown) [Compound 1b] | < 70 | –
0.9 ± 0.2 | 2.4 | 0.82 ± 0.07 | -8.30 ± 0.07 | < 300 | NCCCC[C@H](NC(=O)[C@@H]1CCCN1C(=O)Cc1cccc2ccccc12)C(=O)NCc1ccc(Br)cc1 [Compound 1h] | ~130 | GI50 (HCT116 cells): 135 ± 23 µM
– | 1.0 | 0.34 ± 0.03 | -8.82 ± 0.07 | – | NCCCCC(NC(=O)C1CCCN1C(=O)Cc1cccc2ccccc12)C(=O)Nc1ccccc1C(N)=O (stereo not shown) [DC541, reference compound] | – | IC50 (me3-RCC1 [7]; HCT116 cells, read-out: cellular IC50 on the me3-RCC1 level): ~100 µM; inhibition of me3-SET level (me3-SET [8]): did not show any inhibition
0.24 ± 0.06 | 2.7 | 0.91 ± 0.03 | -8.24 ± 0.03 | < 300 | NCCCCC(NC(=O)C1CCCN1C(=O)Cc1cccc2ccccc12)C(=O)NCc1ccccc1 (stereo not shown) [Compound 1c] | > 300 | –
0.47 ± 0.07 | 2.8 | 0.94 ± 0.03 | -8.22 ± 0.03 | ~100 | NCCCCC(NC(=O)C1CCCN1C(=O)Cc1cccc2ccccc12)C(=O)NCC1CCCCC1 (stereo not shown) [Compound 1f] | > 300 | –
– | 0.50 | 0.17 ± 0.008 | -9.24 ± 0.04 | – | NCCCCC(NC(=O)C1CCCN1C(=O)Cc1cccc2ccccc12)C(=O)Nc1cccc(Br)c1 (stereo not shown) [Compound 1a] | < 70 | GI50 in NTMT1 knockout versus wild-type HCT116 cells [9]: comparable GI50 value
– | – | – | – | – | NCCCC[C@H](NC(=O)[C@@H]1CCCN1C(=O)Cc1ccc(O)cc1)C(=O)N[C@@H](CCCN=C(N)N)C(N)=O [BM30] | – | IC50 (me3-RCC1 [7]; Figure 1, previously reported inhibitors, read-out: Celluar IC50): > 1000 µM; selectivity for NTMT1/2 among a panel of 41 methyltransferases (NTMT1 [12]): over 100 fold; IC50 (NTMT1 [12]; previously reported inhibitor): 0.89 ± 0.1 µM
0.6 ± 0.1 | 1.7 | 0.58 ± 0.03 | -8.51 ± 0.04 | < 300 | NCCCC[C@H](NC(=O)[C@@H]1CCCN1C(=O)Cc1cccc2ccccc12)C(=O)NCc1cccc(Br)c1 [Compound 1g] | ~130 | GI50 (HCT116 cells): 128 ± 20 µM
– | 5.0 | 1.7 ± 0.07 | – | – | CN(CCc1ccccc1)C(=O)C(CCCCN)NC(=O)C1CCCN1C(=O)Cc1cccc2ccccc12 (stereo not shown) [Compound 1i] | – | –

SMILES | Papp (in vitro [1]) [×10⁻⁶ cm/s] | IC50/IC50 (DC541) (NTMT1 [2]) | IC50 (NTMT1 [2]; [13]) [µM] | Expt. ΔGbind ± σ (NTMT1 [2]) [kcal/mol] | IC50 [4] [µM] | GI50 [3] [µM] | other results
NCCCCC(NC(=O)C1CCCN1C(=O)Cc1cccc2ccccc12)C(=O)NCCCc1ccccc1 (stereo not shown) [Compound 1e] | – | 1.9 | – | -8.44 ± 0.01 | ~100 | – | IC50 (NTMT1 [2]): 0.65 ± 0.01 µM; GI50 (in vitro [5]): > 300 µM; Papp [6]: 0.17 ± 0.08 ×10⁻⁶ cm/s
NCCCCC(NC(=O)C1CCCN1C(=O)Cc1cccc2ccccc12)C(=O)NCCc1ccccc1 (stereo not shown) [Compound 1d] | 0.26 ± 0.06 | – | – | – | ~50 | > 300 | inhibition at 100 µM (NNMT): ≤ 50%; increase in cellular inhibition activity on me3-RCC1 compared to DC541 (me3-RCC1 [10]): over 2 fold; IC50 (me3-RCC1 [10]; Homo sapiens, HCT-116): ~50 µM; inhibition at 100 µM (SAHH): ≤ 50%; inhibition at 100 µM (PRMT1): ≤ 50%; increase of inhibitory activity for the SET protein compared with DC541 (me3-SET [11]): over 6 fold; IC50 (me3-SET [11]; Homo sapiens, HCT-116): ~50 µM; inhibition at 100 µM (SETD7): ≤ 50%; inhibition at 100 µM (TbPRMT7): ≤ 50%; inhibition at 100 µM (G9a): ≤ 50%
